Measured values: ChEMBL document CHEMBL3751764, “Synthesis and in vitro antiproliferative activity of novel pyrazolo[3,4-d]pyrimidine derivatives” (Medchemcomm, 2015)

What was measured:
Type in all cases: functional
[1] = test system: NCI-H226; assay: Cytotoxicity against human NCI-H226 cells assessed as cell growth at 10 uM after 72 hrs by SRB assay relative to control; conditions: NCI-H226, 72 h, read-out: Activity
[2] = test system: NCI-H23; assay: Cytotoxicity against human NCI-H23 cells assessed as cell growth at 10 uM after 72 hrs by SRB assay relative to control; conditions: NCI-H23, 72 h, read-out: Activity
[3] = test system: NCI-H322M; assay: Cytotoxicity against human NCI-H322M cells assessed as cell growth at 10 uM after 72 hrs by SRB assay relative to control; conditions: read-out: Activity
[4] = test system: HT-29; assay: Cytotoxicity against human HT-29 cells assessed as cell growth at 10 uM after 72 hrs by SRB assay relative to control; conditions: HT-29, 72 h, read-out: Activity
[5] = Cytotoxicity against human SF268 cells assessed as cell growth at 10 uM after 72 hrs by SRB assay relative to control; conditions: SF-268, 72 h, read-out: Activity
[6] = Cytotoxicity against human SF539 cells assessed as cell growth at 10 uM after 72 hrs by SRB assay relative to control; conditions: SF-539, 72 h, read-out: Activity
[7] = Cytotoxicity against human SNB19 cells assessed as cell growth at 10 uM after 72 hrs by SRB assay relative to control; conditions: SNB-19, 72 h, read-out: Activity
[8] = test system: U-251; assay: Cytotoxicity against human U251 cells assessed as cell growth at 10 uM after 72 hrs by SRB assay relative to control; conditions: U-251, 72 h, read-out: Activity
[9] = test system: SK-MEL-28; assay: Cytotoxicity against human SK-MEL-28 cells assessed as cell growth at 10 uM after 72 hrs by SRB assay relative to control; conditions: SK-MEL-28, 72 h, read-out: Activity
[10] = Cytotoxicity against human UACC62 cells assessed as cell growth at 10 uM after 72 hrs by SRB assay relative to control; conditions: UACC-62, 72 h, read-out: Activity
[11] = Cytotoxicity against human OVCAR4 cells assessed as cell growth at 10 uM after 72 hrs by SRB assay relative to control; conditions: OVCAR-4, 72 h, read-out: Activity
[12] = Cytotoxicity against human OVCAR8 cells assessed as cell growth at 10 uM after 72 hrs by SRB assay relative to control; conditions: OVCAR-8, 72 h, read-out: Activity
[13] = Cytotoxicity against human NCI-ADR-RES cells assessed as cell growth at 10 uM after 72 hrs by SRB assay relative to control; conditions: read-out: Activity
[14] = Cytotoxicity against human RXF393 cells assessed as cell growth at 10 uM after 72 hrs by SRB assay relative to control; conditions: RXF 393, 72 h, read-out: Activity
[15] = Cytotoxicity against human TK10 cells assessed as cell growth at 10 uM after 72 hrs by SRB assay relative to control; conditions: TK-10, 72 h, read-out: Activity
[16] = Cytotoxicity against human UO31 cells assessed as cell growth at 10 uM after 72 hrs by SRB assay relative to control; conditions: UO-31, 72 h, read-out: Activity
[17] = Cytotoxicity against human DU145 cells assessed as cell growth at 10 uM after 72 hrs by SRB assay relative to control; conditions: DU-145, 72 h, read-out: Activity
[18] = Cytotoxicity against human Hs 578T cells assessed as cell growth at 10 uM after 72 hrs by SRB assay relative to control; conditions: read-out: Activity
[19] = test system: CCRF-CEM; assay: Cytotoxicity against human CCRF-CEM cells assessed as cell growth at 10 uM after 72 hrs by SRB assay relative to control; conditions: read-out: Activity
[20] = test system: SR; assay: Cytotoxicity against human SR cells assessed as cell growth at 10 uM after 72 hrs by SRB assay relative to control; conditions: read-out: Activity
[21] = Cytotoxicity against human HOP62 cells assessed as cell growth at 10 uM after 72 hrs by SRB assay relative to control; conditions: HOP-62, 72 h, read-out: Activity
[22] = Cytotoxicity against human HCC2998 cells assessed as cell growth at 10 uM after 72 hrs by SRB assay relative to control; conditions: HCC 2998, 72 h, read-out: Activity
[23] = test system: CCRF-CEM; assay: Cytotoxicity against human CCRF-CEM cells after 72 hrs by SRB assay
[24] = test system: NCI-H23; assay: Cytotoxicity against human NCI-H23 cells after 72 hrs by SRB assay; conditions: NCI-H23, 72 h
[25] = test system: NCI-H460; assay: Cytotoxicity against human NCI-H460 cells after 72 hrs by SRB assay; conditions: NCI-H460, 72 h
[26] = Cytotoxicity against human HCT15 cells after 72 hrs by SRB assay; conditions: HCT-15, 72 h
[27] = Cytotoxicity against human SF539 cells after 72 hrs by SRB assay; conditions: SF-539, 72 h
[28] = test system: Malme-3M; assay: Cytotoxicity against human MALME-3M cells after 72 hrs by SRB assay
[29] = test system: MDA-MB-435; assay: Cytotoxicity against human MDA-MB-435 cells after 72 hrs by SRB assay; conditions: MDA-MB-435, 72 h
[30] = Cytotoxicity against human UACC62 cells after 72 hrs by SRB assay; conditions: UACC-62, 72 h
[31] = Cytotoxicity against human OVCAR5 cells after 72 hrs by SRB assay; conditions: OVCAR-5, 72 h
[32] = Cytotoxicity against human SKOV3 cells after 72 hrs by SRB assay; conditions: SK-OV-3, 72 h
[33] = test system: ACHN; assay: Cytotoxicity against human ACHN cells after 72 hrs by SRB assay
[34] = test system: SN12C; assay: Cytotoxicity against human SN12C cells after 72 hrs by SRB assay
[35] = Cytotoxicity against human DU145 cells after 72 hrs by SRB assay; conditions: DU-145, 72 h
[36] = test system: A549; assay: Downregulation of cyclin D1 expression in human A549 cells by immunohistochemical analysis relative to control
[37] = read-out: LC50 (the source's name)

Structure (SMILES): O=c1sc2cc(Nc3ncnc4c3cnn4-c3ccccc3)ccc2n1Cc1ccc(Cl)cc1
- growth at 10 µM [1]: 71.4%
- growth at 10 µM [2]: 84.7%
- growth at 10 µM [3]: 75.7%
- growth at 10 µM [4]: 106%
- growth at 10 µM [5]: 85.6%
- growth at 10 µM [6]: 79.2%
- growth at 10 µM [7]: 85.6%
- growth at 10 µM [8]: 96.6%
- growth at 10 µM [9]: 90.1%
- growth at 10 µM [10]: 58.3%
- growth at 10 µM [11]: 87%
- growth at 10 µM [12]: 87.9%
- growth at 10 µM [13]: 84.8%
- growth at 10 µM [14]: 79.5%
- growth at 10 µM [15]: 105%
- growth at 10 µM [16]: 50.7%
- growth at 10 µM [17]: 94.5%
- growth at 10 µM [18]: 81.1%
- growth at 10 µM [19]: 63.6%
- growth at 10 µM [20]: 80.6%
- growth at 10 µM [21]: 94%

Structure (SMILES): c1ccc(COc2ccc(Nc3ncnc4c3cnn4-c3ccccc3)cc2)cc1
- growth at 10 µM [1]: 103%
- growth at 10 µM [2]: 109%
- growth at 10 µM [3]: 84.1%
- growth at 10 µM [22]: 108%
- growth at 10 µM [4]: 116%
- growth at 10 µM [5]: 108%
- growth at 10 µM [6]: 99.6%
- growth at 10 µM [7]: 96%
- growth at 10 µM [8]: 106%
- growth at 10 µM [9]: 96%
- growth at 10 µM [10]: 93.3%
- growth at 10 µM [11]: 91.3%
- growth at 10 µM [12]: 113%
- growth at 10 µM [13]: 107%
- growth at 10 µM [14]: 102%
- growth at 10 µM [15]: 111%
- growth at 10 µM [16]: 79.6%
- growth at 10 µM [17]: 104%
- growth at 10 µM [18]: 109%
- growth at 10 µM [19]: 80.8%
- growth at 10 µM [20]: 92%
- growth at 10 µM [21]: 104%

Structure (SMILES): Clc1ccc(-n2ncc3c(Nc4ccc(OCc5ccccc5)cc4)ncnc32)cc1
- growth at 10 µM [1]: 102%
- growth at 10 µM [2]: 92.7%
- growth at 10 µM [3]: 75%
- growth at 10 µM [22]: 98%
- growth at 10 µM [4]: 84.7%
- growth at 10 µM [5]: 99.7%
- growth at 10 µM [6]: 92.4%
- growth at 10 µM [8]: 95%
- growth at 10 µM [9]: 90.4%
- growth at 10 µM [10]: 105%
- growth at 10 µM [11]: 80.6%
- growth at 10 µM [12]: 98%
- growth at 10 µM [13]: 94.5%
- growth at 10 µM [14]: 97.8%
- growth at 10 µM [15]: 92.1%
- growth at 10 µM [16]: 83.6%
- growth at 10 µM [17]: 100%
- growth at 10 µM [18]: 96.6%
- growth at 10 µM [19]: 78.9%
- growth at 10 µM [20]: 83.3%
- growth at 10 µM [21]: 81.6%

Structure (SMILES): O=C(NC1CCCCC1)c1ccc(Nc2ncnc3c2cnn3-c2ccccc2)cc1
- growth at 10 µM [1]: 19.1%
- growth at 10 µM [2]: 72%
- growth at 10 µM [3]: 64%
- growth at 10 µM [4]: 70.2%
- growth at 10 µM [5]: 36.9%
- growth at 10 µM [6]: 43.7%
- growth at 10 µM [7]: 48.7%
- growth at 10 µM [8]: 40.2%
- growth at 10 µM [9]: 62.2%
- growth at 10 µM [10]: 63.9%
- growth at 10 µM [11]: 30.3%
- growth at 10 µM [12]: 21.6%
- growth at 10 µM [13]: 74.2%
- growth at 10 µM [14]: 62.2%
- growth at 10 µM [15]: 51%
- growth at 10 µM [16]: 57.7%
- growth at 10 µM [17]: 54.6%
- growth at 10 µM [18]: 0.22%
- GI50 [23]: > 100 µM
- TGI [23]: > 100 µM
- CC50 [23, 37]: > 100 µM
- GI50 [24]: 10.9 µM
- TGI [24]: 89.9 µM
- CC50 [24, 37]: > 100 µM
- GI50 [25]: 7.09 µM
- TGI [25]: > 100 µM
- CC50 [25, 37]: > 100 µM
- GI50 [26]: 99.3 µM
- TGI [26]: > 100 µM
- CC50 [26, 37]: > 100 µM
- GI50 [27]: 3.81 µM
- TGI [27]: 17.1 µM
- CC50 [27, 37]: 49 µM
- GI50 [28]: 1.97 µM
- TGI [28]: 4.94 µM
- CC50 [28, 37]: 21 µM
- GI50 [29]: 67.8 µM
- TGI [29]: > 100 µM
- CC50 [29, 37]: > 100 µM
- GI50 [30]: 17.4 µM
- TGI [30]: > 100 µM
- CC50 [30, 37]: > 100 µM
- GI50 [31]: 15.2 µM
- TGI [31]: 95.2 µM
- CC50 [31, 37]: > 100 µM
- GI50 [32]: 2.95 µM
- TGI [32]: 8.7 µM
- CC50 [32, 37]: 51.1 µM
- GI50 [33]: 3.32 µM
- TGI [33]: 11 µM
- CC50 [33, 37]: 37 µM
- GI50 [34]: 8.26 µM
- TGI [34]: > 100 µM
- CC50 [34, 37]: > 100 µM
- GI50 [35]: 10.6 µM
- TGI [35]: 48.1 µM
- CC50 [35, 37]: > 100 µM
- Activity [36]: 51%
- growth at 10 µM [19]: 64.9%
- growth at 10 µM [20]: 67.5%
- growth at 10 µM [21]: -66.5%

Structure (SMILES): Cc1ccc2nc(Nc3ncnc4c3cnn4-c3ccccc3)sc2c1
- growth at 10 µM [1]: 101%
- growth at 10 µM [2]: 106%
- growth at 10 µM [3]: 45.7%
- growth at 10 µM [22]: 106%
- growth at 10 µM [4]: 103%
- growth at 10 µM [5]: 114%
- growth at 10 µM [6]: 101%
- growth at 10 µM [7]: 98.2%
- growth at 10 µM [8]: 103%
- growth at 10 µM [9]: 95.3%
- growth at 10 µM [10]: 94.7%
- growth at 10 µM [11]: 104%
- growth at 10 µM [12]: 107%
- growth at 10 µM [13]: 106%
- growth at 10 µM [14]: 99%
- growth at 10 µM [15]: 118%
- growth at 10 µM [16]: 91.7%
- growth at 10 µM [17]: 103%
- growth at 10 µM [18]: 120%
- growth at 10 µM [19]: 87.9%
- growth at 10 µM [20]: 44.8%
- growth at 10 µM [21]: 110%
